Source: ChEMBL document CHEMBL5634109, “Synthesis and mechanism of action of new purine derivatives against triple negative breast cancer” (Eur J Med Chem, 2023)
Activity calls are given as the source filed them. The rule behind the calls is not given here.

Assays:
[1] = target: Dual specificity protein kinase CLK4 (Homo sapiens, UniProt Q9HAZ1); experiment: Inhibition of CLK4 (unknown origin)
[2] = target: Casein kinase I isoform epsilon (Homo sapiens, UniProt P49674); experiment: Inhibition of CK1epsilon (unknown origin)
[3] = Inhibition of PI3K/AKT/mTOR signaling pathway in human MDA-MB-231 cells assessed as increase in p38 phosphorylation at 2 to 4 uM incubated for 6 hrs by Western blot analysis; format: cell-based; settings: dose 2-4 µM
MDA-MB-231 [4] = experiment: Induction of apoptosis in human MDA-MB-231 cells assessed as apoptotic cells at 40 uM incubated for 12 hrs by Annexin V-FITC/PI staining based analysis; format: functional
[5] = Inhibition of PI3K/AKT/mTOR signaling pathway in human MDA-MB-231 cells assessed as decrease in EGFR expression at 1 to 4 uM incubated for 6 hrs by Western blot analysis; format: cell-based; settings: dose 1-4 µM
MDA-MB-231 [6] = experiment: Antitumor activity against human MDA-MB-231 cells xenografted in nude mouse assessed as decrease in tumor size at 10 to 20 mg/kg, ip measured for 3 days; format: functional, organism-based; settings: dose 10-20 mg/kg, time 3.0 day
[7] = target: Dual specificity protein kinase CLK2 (Homo sapiens, UniProt P49760); experiment: Inhibition of CLK2 (unknown origin)
MDA-MB-231 [8] = experiment: Inhibition of cell migration human MDA-MB-231 cells at 0.01 to 0.4 uM incubated for 24 hrs by DAPI staining based analysis; format: functional; settings: dose 0.01-0.4 µM
MDA-MB-231 [9] = experiment: Induction of apoptosis in human MDA-MB-231 cells assessed as apoptotic cells at 4 uM incubated for 12 hrs by Annexin V-FITC/PI staining based analysis; format: functional
MDA-MB-231 [10] = experiment: Antitumor activity against human MDA-MB-231 cells xenografted in nude mouse assessed as reduction in tumor growth at 10 to 20 mg/kg, ip measured for 3 days; format: functional, organism-based; settings: dose 10-20 mg/kg, time 3.0 day
MDA-MB-231 [11] = experiment: Antiproliferative activity against human MDA-MB-231 cells assessed as reduction in cell viability measured for 48 hrs by MTT assay; format: functional, cell-based; settings: MDA-MB-231, 48 h
NCI-H1299 = experiment: Antiproliferative activity against human NCI-H1299 cells assessed as reduction in cell viability measured for 48 hrs by MTT assay; format: functional, cell-based; settings: NCI-H1299, 48 h
A549 = experiment: Antiproliferative activity against human A549 cells assessed as reduction in cell viability measured for 48 hrs by MTT assay; format: functional, cell-based; settings: A549, 48 h
[12] = Antiproliferative activity against human HUVEC cells assessed as reduction in cell viability measured for 48 hrs by MTT assay; format: toxicity, cell-based
[13] = Inhibition of PI3K/AKT/mTOR signaling pathway in human MDA-MB-231 cells assessed as increase in p38 expression at 2 to 4 uM incubated for 6 hrs by Western blot analysis; format: cell-based; settings: dose 2-4 µM
MDA-MB-231 [14] = experiment: Antitumor activity against human MDA-MB-231 cells xenografted in nude mouse assessed as inhibition of spleen metastasis in tumor at 10 mg/kg, ip measured for 3 days; format: functional, organism-based; settings: time 3.0 day
MDA-MB-468 = experiment: Antiproliferative activity against human MDA-MB-468 cells assessed as reduction in cell viability measured for 48 hrs by MTT assay; format: functional, cell-based; settings: MDA-MB-468, 48 h
MDA-MB-231 [15] = experiment: Antitumor activity against human MDA-MB-231 cells xenografted in nude mouse assessed as inhibition of lung metastasis in tumor at 10 mg/kg, ip measured for 3 days; format: functional, organism-based; settings: time 3.0 day
MDA-MB-231 [16] = experiment: Antiproliferative activity against human MDA-MB-231 cells assessed as reduction in viability at 4 uM incubated for 7.5 hrs by MTT assay; format: functional
MDA-MB-231 [17] = experiment: Antitumor activity against human MDA-MB-231 cells xenografted in nude mouse assessed as inhibition of proliferation of tumor cells at 10 mg/kg, ip measured for 3 days by H and E staining based analysis; format: functional, organism-based; settings: time 3.0 day
MDA-MB-231 [18] = experiment: Induction of apoptosis in human MDA-MB-231 cells assessed as apoptotic cells at 4 uM incubated for 48 hrs by Annexin V-FITC/PI staining based analysis; format: functional
MDA-MB-231 [19] = experiment: Induction of apoptosis in human MDA-MB-231 cells assessed as apoptotic cells at 4 uM incubated for 24 hrs by Annexin V-FITC/PI staining based analysis; format: functional
[20] = Inhibition of PI3K/AKT/mTOR signaling pathway in human MDA-MB-231 cells assessed as decrease in mTOR phosphorylation at 1 to 4 uM incubated for 6 hrs by Western blot analysis; format: cell-based; settings: dose 1-4 µM
Cell membrane = experiment: Induction of mitochondrial membrane potential loss in human MDA-MB-231 cells assessed as increase in fluorescence intensity at 40 uM incubated for 48 hrs by TMRM dye based flow cytometry analysis (reference value: 97.5%)
HUVEC [21] = experiment: Antiangiogenesis activity in HUVEC cells at 0.03 to 0.3 uM incubated for 12 hrs by microscopic analysis; format: functional, cell-based; settings: Homo sapiens, dose 0.03-0.3 µM
MDA-MB-231 [22] = experiment: Induction of apoptosis in human MDA-MB-231 cells assessed as apoptotic cells at 40 uM incubated for 48 hrs by Annexin V-FITC/PI staining based analysis; format: functional
HUVEC [23] = experiment: Antiangiogenesis activity in HUVEC cells at 62.5 nM incubated for 12 hrs by microscopic analysis; format: functional, cell-based; settings: Homo sapiens
MDA-MB-231 [24] = experiment: Antiproliferative activity against human MDA-MB-231 cells assessed as reduction in viability at 10 uM incubated for 7.5 hrs by MTT assay; format: functional
[25] = target: Dual specificity protein kinase CLK1 (Homo sapiens, UniProt P49759); experiment: Inhibition of CLK1 (unknown origin)
MDA-MB-231 [26] = experiment: Antitumor activity against human MDA-MB-231 cells xenografted in nude mouse assessed as decrease in Ki67 expression at 10 mg/kg, ip measured for 3 days by immunohistochemistry analysis; format: functional, organism-based; settings: time 3.0 day
MDA-MB-231 [27] = experiment: Antitumor activity against human MDA-MB-231 cells xenografted in nude mouse assessed as decrease in CD31 expression at 10 mg/kg, ip measured for 3 days by immunohistochemistry analysis; format: functional, organism-based; settings: time 3.0 day
[28] = Inhibition of PI3K/AKT/mTOR signaling pathway in human MDA-MB-231 cells assessed as decrease in mTOR expression at 1 to 4 uM incubated for 6 hrs by Western blot analysis; format: cell-based; settings: dose 1-4 µM
HCT-116 = experiment: Antiproliferative activity against human HCT-116 cells assessed as reduction in cell viability measured for 48 hrs by MTT assay; format: functional, cell-based; settings: HCT-116, 48 h
[29] = Antiproliferative activity against human HEK293 cells assessed as reduction in cell viability measured for 48 hrs by MTT assay; format: toxicity, cell-based
MDA-MB-231 [30] = experiment: Inhibition of cell migration human MDA-MB-231 cells assessed as migration distance at 25 uM incubated for 48 hrs by wound healing assay (reference value: 642.72 micrometer); format: functional
MDA-MB-231 [31] = experiment: Induction of apoptosis in human MDA-MB-231 cells assessed as increase in number of cell debris at 4 uM incubated for 48 hrs; format: functional, cell-based
[32] = Inhibition of PI3K/AKT/mTOR signaling pathway in human MDA-MB-231 cells assessed as decrease in AKT expression at 1 to 4 uM incubated for 6 hrs by Western blot analysis; format: cell-based; settings: dose 1-4 µM
[33] = target: Cyclin-dependent kinase 7 (Homo sapiens, UniProt P50613); experiment: Inhibition of CDK7 (unknown origin)
Chain of Cyclin-dependent kinase 7 (P50613 whole entry): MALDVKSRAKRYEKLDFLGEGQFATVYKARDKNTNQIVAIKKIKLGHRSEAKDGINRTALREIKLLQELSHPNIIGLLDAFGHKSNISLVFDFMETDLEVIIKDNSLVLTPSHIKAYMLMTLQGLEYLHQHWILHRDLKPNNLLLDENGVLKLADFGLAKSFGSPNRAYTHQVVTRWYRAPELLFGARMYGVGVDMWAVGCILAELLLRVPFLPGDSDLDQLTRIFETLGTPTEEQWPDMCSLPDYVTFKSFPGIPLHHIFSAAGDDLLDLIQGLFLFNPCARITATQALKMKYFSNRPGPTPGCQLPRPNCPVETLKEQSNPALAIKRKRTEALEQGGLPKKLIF

Chain of Dual specificity protein kinase CLK1 (P49759 whole entry): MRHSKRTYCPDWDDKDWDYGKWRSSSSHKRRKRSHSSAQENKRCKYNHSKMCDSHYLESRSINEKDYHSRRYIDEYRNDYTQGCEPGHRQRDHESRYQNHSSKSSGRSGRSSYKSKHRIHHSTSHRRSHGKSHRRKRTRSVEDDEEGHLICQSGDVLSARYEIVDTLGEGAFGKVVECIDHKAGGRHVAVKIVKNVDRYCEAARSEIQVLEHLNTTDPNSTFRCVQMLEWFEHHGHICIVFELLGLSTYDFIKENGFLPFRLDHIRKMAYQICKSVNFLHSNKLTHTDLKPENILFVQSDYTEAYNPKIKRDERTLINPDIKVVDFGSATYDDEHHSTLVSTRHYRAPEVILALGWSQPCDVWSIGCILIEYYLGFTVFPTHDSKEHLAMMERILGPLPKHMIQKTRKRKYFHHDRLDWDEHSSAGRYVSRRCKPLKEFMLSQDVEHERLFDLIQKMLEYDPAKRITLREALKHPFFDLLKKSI
Chain of Casein kinase I isoform epsilon (P49674 whole entry, canonical isoform): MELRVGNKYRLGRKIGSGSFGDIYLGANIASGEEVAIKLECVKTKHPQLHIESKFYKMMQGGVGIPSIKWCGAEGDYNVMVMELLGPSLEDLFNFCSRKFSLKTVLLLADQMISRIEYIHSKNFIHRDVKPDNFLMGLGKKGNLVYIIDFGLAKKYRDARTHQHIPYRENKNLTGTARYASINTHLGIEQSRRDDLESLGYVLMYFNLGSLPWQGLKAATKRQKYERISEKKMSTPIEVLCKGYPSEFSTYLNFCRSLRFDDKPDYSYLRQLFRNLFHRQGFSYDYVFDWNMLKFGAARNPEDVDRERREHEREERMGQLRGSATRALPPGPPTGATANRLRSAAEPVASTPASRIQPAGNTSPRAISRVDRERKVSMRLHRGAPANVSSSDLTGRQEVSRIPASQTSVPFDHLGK
Chain of Dual specificity protein kinase CLK4 (Q9HAZ1 whole entry, canonical isoform): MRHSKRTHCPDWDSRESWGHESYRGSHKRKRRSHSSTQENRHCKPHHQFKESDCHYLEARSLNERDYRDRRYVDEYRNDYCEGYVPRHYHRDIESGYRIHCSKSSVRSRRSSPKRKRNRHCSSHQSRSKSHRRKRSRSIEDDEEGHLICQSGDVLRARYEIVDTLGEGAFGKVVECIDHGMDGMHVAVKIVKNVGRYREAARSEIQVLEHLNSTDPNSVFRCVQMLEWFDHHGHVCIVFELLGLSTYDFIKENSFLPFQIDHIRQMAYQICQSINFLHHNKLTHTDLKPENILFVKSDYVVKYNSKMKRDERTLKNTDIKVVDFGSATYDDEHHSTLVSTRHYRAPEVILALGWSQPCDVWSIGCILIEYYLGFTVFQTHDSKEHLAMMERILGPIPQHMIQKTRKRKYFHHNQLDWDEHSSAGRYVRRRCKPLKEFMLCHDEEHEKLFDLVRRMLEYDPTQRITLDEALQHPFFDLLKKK
Chain of Dual specificity protein kinase CLK2 (P49760 whole entry): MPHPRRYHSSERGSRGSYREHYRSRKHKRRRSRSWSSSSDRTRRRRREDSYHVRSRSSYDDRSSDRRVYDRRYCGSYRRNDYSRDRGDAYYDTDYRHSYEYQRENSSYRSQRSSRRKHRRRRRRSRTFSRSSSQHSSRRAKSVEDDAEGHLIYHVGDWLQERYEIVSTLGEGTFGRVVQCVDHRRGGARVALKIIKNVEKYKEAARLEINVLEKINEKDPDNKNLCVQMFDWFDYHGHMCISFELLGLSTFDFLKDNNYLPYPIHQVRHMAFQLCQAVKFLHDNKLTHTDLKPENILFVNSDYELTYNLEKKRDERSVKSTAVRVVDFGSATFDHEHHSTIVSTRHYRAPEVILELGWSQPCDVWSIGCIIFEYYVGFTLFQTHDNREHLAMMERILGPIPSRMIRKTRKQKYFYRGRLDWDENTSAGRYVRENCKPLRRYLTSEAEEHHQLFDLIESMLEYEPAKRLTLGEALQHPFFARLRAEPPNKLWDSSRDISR

OCCN1CCC(C2CCN(c3nc(NCc4ccc(F)c(Cl)c4)c4ncn(CC5CC5)c4n3)CC2)CC1
IC50 [1]: 685 nM | IC50 [2]: 296 nM | inhibition [3]: Active | Activity (MDA-MB-231 [4]): >95% | inhibition [5]: Active | Activity (MDA-MB-231 [6]): Active | IC50 [7]: 194 nM | inhibition (MDA-MB-231 [8]): Active | Activity (MDA-MB-231 [9]): 83.5% | Activity (MDA-MB-231 [10]): Active | IC50 (MDA-MB-231 [11]): 3150 nM | IC50 (NCI-H1299): 4280 nM | IC50 (A549): 2120 nM | IC50 at 48 h [12]: 4260 nM | inhibition [13]: Active | Activity (MDA-MB-231 [14]): Active | IC50 (MDA-MB-468): 2820 nM | Activity (MDA-MB-231 [15]): Active | Activity (MDA-MB-231 [16]): ~100% | Activity (MDA-MB-231 [17]): Active | Activity (MDA-MB-231 [18]): 96.3% | Activity (MDA-MB-231 [19]): 97.1% | inhibition [20]: Active | Activity (Cell membrane): 24.5% | Activity (HUVEC [21]): Active | Activity (MDA-MB-231 [22]): >95% | Activity (HUVEC [23]): Active | Activity (MDA-MB-231 [24]): ~100% | IC50 [25]: 2970 nM | Activity (MDA-MB-231 [26]): Active | Activity (MDA-MB-231 [27]): Active | inhibition [28]: Active | IC50 (HCT-116): 340 nM | IC50 at 48 h [29]: 4320 nM | Activity (MDA-MB-231 [30]): 23.48 um | Activity (MDA-MB-231 [31]): Active | inhibition [32]: Active | IC50 [33]: 2320 nM
